Reference: US20260042764A1, “COMPOSITIONS AND METHODS FOR INHIBITION OF KRAS” (TheRas, Inc., priority 2022, published 2026)

Experiments:
[1] = target: T1, Avi-KRAS G12D (1-169) GppNHp/RAF1 RBD-3xFLAG (52-151) (Homo sapiens, UniProt P01116, G12D); assay: Raf1-KRAS G12D-GppNHP disruption HTRF assay (Biological Example 1); format: binding
T1 construct: Avi-KRAS G12D (1-169)
Procedure, shortened: (§1)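 Protein mix, 1 h RT, 700 rpm; reagent mix, 1 h RT, 700 rpm; HTRF read. Buffer Tris pH 7.5/NaCl/MgCl2/BSA/Tween, 10% DMSO. Output % activity, DMSO = 100%.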

[2] = target: T2, Avi-KRAS G12R (1-169) GppNHp/RAF1 RBD-3xFLAG (52-151) (Homo sapiens, UniProt P01116, G12R); assay: Raf1-KRAS G12R-GppNHP disruption HTRF assay (Biological Example 1); format: binding
T2 construct: Avi-KRAS G12R (1-169)
T2 sequence (P01116 1-169 isoform P01116-2 G12R): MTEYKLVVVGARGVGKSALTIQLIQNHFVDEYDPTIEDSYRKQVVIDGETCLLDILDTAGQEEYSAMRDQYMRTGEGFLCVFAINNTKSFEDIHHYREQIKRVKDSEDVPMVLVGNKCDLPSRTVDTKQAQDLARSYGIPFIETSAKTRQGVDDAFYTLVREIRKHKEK
Procedure, shortened: as §1

[3] = system: GP2d cells (KRAS G12D); assay: Cell-based pERK HTRF assay in GP2d cell (Biological Example 2); settings: GP2d (KRAS G12D) cells, pERK HTRF
Procedure, shortened: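 Phospho-ERK is measured by HTRF following a 60 min compound exposure at 0.25% DMSO, with a 9-point half-log curve topping at 1 μM or 100 nM.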

[4] = system: SW620 cells (KRAS G12V); assay: Cell-based pERK HTRF assay in SW620 cell (Biological Example 4); settings: pERK HTRF
Procedure, shortened: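 SW620 seeded in RPMI/10% FBS, next day dosed 4 h (top 1 μM, half-log, 9 pts, 0.25% DMSO). Lysed, pERK by d2/Eu cryptate HTRF, 4–24 h RT, 615 nm read.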

[5] = target: T3, Avi-KRAS WT (1-169) GppNHp/RAF1 RBD-3xFLAG (52-151) (Homo sapiens, UniProt P01116); assay: Raf1-KRAS WT-GppNHP disruption HTRF assay (Biological Example 1); format: binding
T3 construct: Avi-KRAS WT (1-169)
T3 sequence (P01116 1-169 isoform P01116-2): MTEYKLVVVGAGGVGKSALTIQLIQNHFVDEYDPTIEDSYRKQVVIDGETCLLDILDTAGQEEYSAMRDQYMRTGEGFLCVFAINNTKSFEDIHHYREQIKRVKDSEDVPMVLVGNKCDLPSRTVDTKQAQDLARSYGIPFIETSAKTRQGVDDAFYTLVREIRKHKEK
Procedure, shortened: as §1

[6] = target: T4, Avi-KRAS G12V (1-169) GppNHp/RAF1 RBD-3xFLAG (52-151) (Homo sapiens, UniProt P01116, G12V); assay: Raf1-KRAS G12V-GppNHP disruption HTRF assay (Biological Example 1); format: binding
T4 construct: Avi-KRAS G12V (1-169)
T4 sequence (P01116 1-169 isoform P01116-2 G12V): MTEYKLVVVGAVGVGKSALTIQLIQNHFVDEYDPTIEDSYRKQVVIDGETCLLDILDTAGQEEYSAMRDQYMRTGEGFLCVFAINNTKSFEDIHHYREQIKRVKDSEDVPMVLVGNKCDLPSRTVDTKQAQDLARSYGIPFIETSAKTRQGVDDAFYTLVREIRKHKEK
Procedure, shortened: as §1

[7] = Homo sapiens, SW-620, SW620 (KRAS G12V) cells
[8] = KRAS G12D, GppNHp-loaded, class symbols
[9] = KRAS G12R, GppNHp-loaded, class symbols
[10] = Homo sapiens, SW-620, SW620 (KRAS G12V) cells, class symbols
[11] = KRAS WT, GppNHp-loaded, class symbols
[12] = KRAS G12V, GppNHp-loaded, class symbols
[13] = KRAS G12D, GppNHp-loaded, Table 11
[14] = KRAS G12R, GppNHp-loaded, Table 11
[15] = KRAS WT, GppNHp-loaded, Table 11
[16] = KRAS G12V, GppNHp-loaded, Table 11

T1 sequence (P01116 1-169 isoform P01116-2 G12D): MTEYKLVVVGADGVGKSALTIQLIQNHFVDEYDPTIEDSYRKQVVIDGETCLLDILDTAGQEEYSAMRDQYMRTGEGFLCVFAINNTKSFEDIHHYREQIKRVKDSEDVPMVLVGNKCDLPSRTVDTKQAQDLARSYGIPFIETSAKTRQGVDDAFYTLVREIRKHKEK

| SMILES | IC50 ([1]; KRAS G12D-GppNHp/RAF1 RBD HTRF) [nM] | IC50 ([2]; KRAS G12R-GppNHp/RAF1 RBD HTRF) [nM] | IC50 ([3]; GP2d) [nM] | IC50 [4, 7] [nM] | IC50 ([5]; KRAS WT-GppNHp/RAF1 RBD HTRF) [nM] | IC50 ([6]; KRAS G12V-GppNHp/RAF1 RBD HTRF) [nM] | IC50 [1, 13] [nM] | IC50 [2, 14] [nM] | IC50 [5, 15] [nM] | IC50 [6, 16] [nM] | other results |
| --- | --- | --- | --- | --- | --- | --- | --- | --- | --- | --- | --- |
| CCN1CC[C@H](N(CC)c2nc(OC[C@@]34CCCN3C[C@H](F)C4)nc3c(F)c(-c4ccc(F)c5sc(N)c(C#N)c45)c(C(F)(F)F)cc23)C1=O (atropisomer, axis not shown) [Compound 694] | – | – | – | – | – | – | – | – | – | – | IC50 [1, 8]: < 100 nM; IC50 [2, 9]: 100 to 1000 nM; IC50 ([3]; GP2d, class symbols): < 100 nM; IC50 [4, 10]: < 100 nM; IC50 [5, 11]: 100 to 1000 nM; IC50 [6, 12]: 100 to 1000 nM |
| CCN(c1nc(OC[C@@]23CCCN2C[C@H](F)C3)nc2c(F)c(-c3ccc(F)c4sc(N)c(C#N)c34)c(C(F)(F)F)cc12)[C@H]1C[C@@H](C)N(C(=O)N2CC(F)C2)C1 (atropisomer, axis not shown) [Compound 782] | – | – | – | – | – | – | – | – | – | – | IC50 [1, 8]: 100 to 1000 nM; IC50 [2, 9]: 100 to 1000 nM; IC50 ([3]; GP2d, class symbols): < 100 nM; IC50 [4, 10]: < 100 nM; IC50 [5, 11]: 100 to 1000 nM; IC50 [6, 12]: 100 to 1000 nM |
| CN(c1nc(OC[C@@]23CCCN2C[C@H](F)C3)nc2c(F)c(-c3ccc(F)c4sc(N)c(C#N)c34)c(C(F)(F)F)cc12)[C@@H]1CNC(=O)C1 [Compound 340] | 100 to 1000 | 100 to 1000 | < 100 | 100 to 1000 | 100 to 1000 | 100 to 1000 | – | – | – | – | – |
| CC(=O)N(C)[C@H]1CCN(c2nc(OC[C@@]34CCCN3C[C@H](F)C4)nc3c(F)c(-c4ccc(F)c5sc(N)c(C#N)c45)c(C(F)(F)F)cc23)C1 [Compound 206] | – | – | 100 to 1000 | 100 to 1000 | – | – | 1000 to 10000 | 1000 to 10000 | 1000 to 10000 | 1000 to 10000 | – |
| CCN(c1nc(OC[C@@]23CCCN2C[C@H](F)C3)nc2c(F)c(-c3ccc(F)c4sc(N)c(C#N)c34)c(C(F)(F)F)cc12)[C@H]1CCN(C(=O)C(F)F)C1 (atropisomer, axis not shown) [Compound 547] | < 100 | < 100 | < 100 | < 100 | < 100 | < 100 | – | – | – | – | – |
| CC(=O)N1CC[C@H](N(C)c2nc(OC[C@@]34CCCN3C[C@H](F)C4)nc3c(F)c(-c4ccc(F)c5sc(N)c(C#N)c45)c(C(F)(F)F)cc23)[C@@H]1C (single isomer, unassigned) [Compound 194] | – | – | – | – | – | – | > 10000 | > 10000 | > 10000 | > 10000 | IC50 [3]: > 1000 nM; IC50 ([4]; SW620 (KRAS G12V) cells): > 1000 nM |
| CC(=O)N1C[C@@H](F)[C@H](N(C)c2nc(OC[C@@]34CCCN3C[C@H](F)C4)nc3c(F)c(-c4ccc(F)c5sc(N)c(C#N)c45)c(C(F)(F)F)cc23)C1 [Compound 186] | – | – | < 100 | 100 to 1000 | – | – | 100 to 1000 | 100 to 1000 | 100 to 1000 | 100 to 1000 | – |

More lines, main results first:

| IC50 ([1]; KRAS G12D-GppNHp/RAF1 RBD HTRF) [nM] | IC50 ([2]; KRAS G12R-GppNHp/RAF1 RBD HTRF) [nM] | IC50 ([3]; GP2d) [nM] | IC50 [4, 7] [nM] | IC50 ([5]; KRAS WT-GppNHp/RAF1 RBD HTRF) [nM] | IC50 ([6]; KRAS G12V-GppNHp/RAF1 RBD HTRF) [nM] | IC50 [1, 13] [nM] | IC50 [2, 14] [nM] | IC50 [5, 15] [nM] | IC50 [6, 16] [nM] | SMILES | other results |
| --- | --- | --- | --- | --- | --- | --- | --- | --- | --- | --- | --- |
| 100 to 1000 | 100 to 1000 | < 100 | 100 to 1000 | 100 to 1000 | 1000 to 10000 | – | – | – | – | N#Cc1c(N)sc2c(F)ccc(-c3c(C(F)(F)F)cc4c(N5C[C@H]6C[C@@H](O)[C@@H]5C6)nc(OC[C@@]56CCCN5C[C@H](F)C6)nc4c3F)c12 [Compound 362] | – |
| 100 to 1000 | 100 to 1000 | < 100 | 100 to 1000 | 100 to 1000 | 100 to 1000 | – | – | – | – | N#Cc1c(N)sc2c(F)ccc(-c3c(C(F)(F)F)cc4c(N5CCn6nc(C(=O)N7CC(O)C7)cc6C5)nc(OC[C@@]56CCCN5C[C@H](F)C6)nc4c3F)c12 [Compound 502] | – |
| – | – | < 100 | < 100 | – | – | 100 to 1000 | 100 to 1000 | 100 to 1000 | 1000 to 10000 | N#Cc1c(N)sc2c(F)ccc(-c3c(C(F)(F)F)cc4c(N5C[C@@H]6C[C@H]5CO6)nc(OC[C@@]56CCCN5C[C@H](F)C6)nc4c3F)c12 [Compound 259] | – |
| 100 to 1000 | 100 to 1000 | < 100 | < 100 | 100 to 1000 | 100 to 1000 | – | – | – | – | C[C@@H]1C[C@H](N(C)c2nc(OC[C@@]34CCCN3C[C@H](F)C4)nc3c(F)c(-c4ccc(F)c5sc(N)c(C#N)c45)c(C(F)(F)F)cc23)CN1C(=O)C1CC1 [Compound 443] | – |
